Assay results published in article PMC9611727, “Optimization of a Novel Mandelamide-Derived Pyrrolopyrimidine Series of PERK Inhibitors” (Pharmaceutics, 2022).
pIC50: −log10 of the molar value. Read-outs that look alike come from different tables or passages of the source.

Experiments:
[1] = molecular target: T1, PERK (Homo sapiens, UniProt Q9NZJ5); experiment: PERK biochemical LanthaScreen TR-FRET assay (GFP-eIF2a phosphorylation)
T1 sequence (Q9NZJ5 30-1116): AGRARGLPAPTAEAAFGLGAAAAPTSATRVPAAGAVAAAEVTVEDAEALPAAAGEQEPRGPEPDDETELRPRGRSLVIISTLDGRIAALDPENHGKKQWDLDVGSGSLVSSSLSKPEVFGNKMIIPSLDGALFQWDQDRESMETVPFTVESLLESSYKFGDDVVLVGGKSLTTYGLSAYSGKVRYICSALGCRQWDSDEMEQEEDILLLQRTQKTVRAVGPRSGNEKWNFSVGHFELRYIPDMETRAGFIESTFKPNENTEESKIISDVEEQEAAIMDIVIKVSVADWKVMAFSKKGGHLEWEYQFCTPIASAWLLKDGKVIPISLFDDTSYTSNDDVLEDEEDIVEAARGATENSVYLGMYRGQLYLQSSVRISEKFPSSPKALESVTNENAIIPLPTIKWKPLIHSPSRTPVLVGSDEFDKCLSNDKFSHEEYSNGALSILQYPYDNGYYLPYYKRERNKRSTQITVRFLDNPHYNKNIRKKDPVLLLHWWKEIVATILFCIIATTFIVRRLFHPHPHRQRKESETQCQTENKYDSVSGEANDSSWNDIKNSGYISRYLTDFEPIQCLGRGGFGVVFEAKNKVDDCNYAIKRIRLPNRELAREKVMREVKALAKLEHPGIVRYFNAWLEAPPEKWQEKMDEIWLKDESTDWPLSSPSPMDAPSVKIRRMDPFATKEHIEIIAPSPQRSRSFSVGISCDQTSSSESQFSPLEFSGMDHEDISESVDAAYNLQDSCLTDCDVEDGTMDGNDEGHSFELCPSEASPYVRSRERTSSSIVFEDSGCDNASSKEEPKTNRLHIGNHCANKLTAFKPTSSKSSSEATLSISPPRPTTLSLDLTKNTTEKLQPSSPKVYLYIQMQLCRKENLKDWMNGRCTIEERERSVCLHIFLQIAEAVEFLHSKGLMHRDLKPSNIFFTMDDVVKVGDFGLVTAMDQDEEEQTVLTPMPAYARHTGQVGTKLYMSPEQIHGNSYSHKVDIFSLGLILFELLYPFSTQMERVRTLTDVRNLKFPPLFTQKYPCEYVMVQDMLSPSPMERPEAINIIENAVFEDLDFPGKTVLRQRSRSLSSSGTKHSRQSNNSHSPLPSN
Protocol: Methods used to evaluate biochemical PERK activity are described and published elsewhere. In brief, biochemical PERK activity is evaluated using a LanthaScreenTM ([…]) TR-FRET assay to detect phosphorylation of a GFP-tagged eIF2a substrate (ThermoFisher). Excitation at […] of a terbium chelate donor fluorophore in an eIF2a antibody results in energy transfer to GFP acceptor fluorophore upon eIF2a phosphorylation by PERK. Reaction buffer was composed of 50 mM HEPES (pH 7.4), 10 mM MgCl2, 1 mM EGTA and 0.01% (v/v) BrijTM-35. Reactions were initiated by the addition of substrate and ATP, followed by incubation for 1 h at RT prior to addition of EDTA and the anti-peIF2a antibody. FRET was measured by an EnVision Plate Reader (PerkinElmer). Data were plotted as percent inhibition along a 10-point 3-fold dilution series of inhibitors. IC50 values were calculated using 4-parameter logistical fitting in XLFit.
(§1) The PERK activity of analog I was evaluated using cell-free biochemical assays. In these assays, PERK phosphorylation of eIF2a was assessed using a FRET-based labelled protein assay. Compounds were then evaluated for cellular activity by quantifying inhibition of eIF2a phosphorylation in HEK293 cells treated with the ER inducer tunicamycin [7].

[2] = tested on: p-eIF2α; experiment: Cellular PERK inhibition: p-eIF2a TR-FRET in tunicamycin-treated HEK293-EGFP-eIF2a cells; format: cell-based
Protocol: Methods used to evaluate in vitro cellular PERK inhibition are described and published elsewhere. In brief, stableHEK293 cells were created using lentiviral particles harboring a GFP-eIF2a expression vector. Transfectants were selected by puromycin and enriched using fluorescent cell sorting based on GFP expression. HEK293-EGFP-eIF2a cells were plated at 5000 cells/well in 384-well assay plates and incubated overnight. The following day, pyrrolopyrimidine analogs were added to wells using an Echo acoustic dispenser and incubated for 30 min. ER stress was induced by the addition of tunicamycin to the wells at […] for 2 h. Cells were lysed and peIF2a was evaluated using a TR-FRET system, as described above.
as §1

[3] = cell-free TR-FRET, GFP-eIF2a substrate, read-out: PERK IC50
[4] = Homo sapiens, HEK293 cells, tunicamycin-induced ER stress, read-out: p-eIF2α IC50

SMILES | pIC50 [1, 3] | pIC50 [2, 4] | pIC50 ([1]; bound stated, read-out: biochemical potency) | pIC50 ([2]; bound stated, read-out: cellular potency)
Cc1nc(N)c2c(-c3ccc(NC(=O)[C@H](O)c4cccc(F)c4)cc3OC(F)(F)F)cn(C)c2n1 [Compound 61] | 7.64 | 6.36 |  | 
Cc1nc(N)c2c(-c3ccc(NC(=O)[C@H](O)c4cncc(Cl)c4)cc3C)cn(C)c2n1 [Compound 44] | 7.77 | 6.89 |  | 
Cc1cc(NC(=O)c2ccccc2)ccc1-c1cn(C)c2ncnc(N)c12 [Compound 16] | 6.77 | 5.40 |  | 
Cc1nc(N)c2c(-c3ccc(NC(=O)[C@H](O)c4ccccc4Cl)cc3C)cn(C)c2n1 [Compound 29] | 6.97 | 6.15 |  | 
Cc1nc(N)c2c(-c3ccc(NC(=O)[C@H](O)c4ccccc4F)cc3C)cn(C)c2n1 [Compound 25] | 6.99 | 6.52 |  | 
Cc1cc(NC(=O)Cc2ccccc2)ccc1-c1cn(C)c2ncnc(N)c12 [Compound 14] | 8.28 | 7.39 |  | 
Cc1nc(N)c2c(-c3ccc(NC(=O)[C@H](O)c4cccc(S(C)(=O)=O)c4)cc3C)cn(C)c2n1 [Compound 37] | < 6.00 | < 5.00 |  | 
Cc1nc(N)c2c(-c3ccc(NC(=O)[C@H](O)c4cccc(C5CC5)c4)cc3C)cn(C)c2n1 [Compound 35] | 8.23 | 7.77 |  | 
Cc1cc(F)cc([C@@H](O)C(=O)Nc2ccc(-c3cn(C)c4nc(C)nc(N)c34)c(F)c2)c1 [Compound 52] | 8.96 | 7.96 | > 8.30 | > 7.82
Cc1nc(N)c2c(-c3ccc(NC(=O)[C@H](O)c4cccc(F)c4)cc3)cn(C)c2n1 [Compound 62] | 8.70 | 6.90 |  | 
Cc1cc(NC(=O)Nc2ccccc2)ccc1-c1cn(C)c2ncnc(N)c12 [Compound 19] | 7.68 | 6.68 |  | 
Cc1cc(NC(=O)[C@H](O)c2ccccc2)ccc1-c1cn(C)c2ncnc(N)c12 [Compound 13] | 8.74 | 7.64 |  | 
Cc1nc(N)c2c(-c3c(C)cc(NC(=O)C(O)c4cccc(F)c4)cc3C)cn(C)c2n1 (centres unmarked) [Compound 68] | 7.89 | 7.09 |  | 
Cc1nc(N)c2c(-c3ccc(NC(=O)[C@H](O)c4cc(F)cc(C(F)(F)F)c4)cc3F)cn(C)c2n1 [Compound 51] | 8.57 | 7.21 |  | 
Cc1nc(N)c2c(-c3ccc(NC(=O)C(O)c4ccccc4C(F)(F)F)cc3C)cn(C)c2n1 (centres unmarked) [Compound 27] | 6.46 | 5.69 |  | 
Cc1nc(N)c2c(-c3ccc(NC(=O)[C@H](O)c4cncc(C(F)(F)F)c4)cc3C)cn(C)c2n1 [Compound 45] | 7.72 | 6.78 |  | 
Cc1nc(N)c2c(-c3ccc(NC(=O)[C@H](O)c4cccc(C(F)(F)F)c4)nc3C)cn(C)c2n1 [Compound 73] | 7.89 | 7.29 |  | 
Cc1nc(N)c2c(-c3ccc(NC(=O)[C@H](O)c4cccc(Br)c4)cc3)cn(C)c2n1 [Compound 64] | 8.82 | 7.85 |  | 
Cc1nc(N)c2c(-c3ccc(NC(=O)[C@H](O)c4cccc(Br)c4)cc3C)cn(C)c2n1 [Compound 33] | 8.52 | 7.85 |  | 
Cc1nc(N)c2c(-c3ccc(NC(=O)[C@H](O)c4cc(F)cc(Cl)c4)cc3C)cn(C)c2n1 [Compound 40] | 8.54 | 8.07 |  | 
Cc1cc(NC(=O)C(C)(O)c2ccccc2)ccc1-c1cn(C)c2ncnc(N)c12 (centres unmarked) [Compound 22] | 7.25 | 6.74 |  | 
CCc1cc(NC(=O)[C@H](O)c2cccc(F)c2)ccc1-c1cn(C)c2nc(C)nc(N)c12 [Compound 59] | 8.40 | 7.39 |  | 
Cc1cc(NC(=O)[C@@H](O)c2cccc(F)c2)ccc1-c1cn(C)c2ncnc(N)c12 [Compound 12, (S)-N-(4-(4-amino-7-methyl-7H-pyrrolo[2,3-d]pyrimidin-5-yl)-3-methylphenyl) -2-(3-fluorophenyl) -2-hydroxyacetamide] | 8.11 | 7.24 |  | 
Cc1nc(N)c2c(-c3ccc(NC(=O)[C@H](O)c4cccc(C#N)c4)cc3C)cn(C)c2n1 [Compound 36] | 8.10 | 6.49 |  | 
